Source: a compilation of properties of binary mixtures (doi:10.1016/j.molliq.2021.118139)

Test: xn = mol fraction of the nth substance listed
Conditions: 100 kPa

CCCC[N+](CCCC)(CCCC)CCCC.[Cl-] + Oc1ccccc1
Conditions	electrical conductivity, 293.15 K [S/m]	electrical conductivity, 303.15 K [S/m]	electrical conductivity, 313.15 K [S/m]	electrical conductivity, 323.15 K [S/m]	electrical conductivity, 333.15 K [S/m]	viscosity, 293.15 K [mPa·s]	viscosity, 303.15 K [mPa·s]	viscosity, 313.15 K [mPa·s]	viscosity, 333.15 K [mPa·s]
x1 = 0.1667	0.0802	0.117	0.167	0.232	0.317	–	–	–	–
x1 = 0.167	–	–	–	–	–	91.3	66.4	49.2	28.6

CC[N+](CC)(CC)CC.[Cl-] + OCCOCCOCCO
Conditions	electrical conductivity, 293.15 K [S/m]	electrical conductivity, 303.15 K [S/m]	electrical conductivity, 313.15 K [S/m]	electrical conductivity, 323.15 K [S/m]	electrical conductivity, 333.15 K [S/m]	viscosity, 293.15 K [mPa·s]	viscosity, 303.15 K [mPa·s]	viscosity, 313.15 K [mPa·s]	viscosity, 323.15 K [mPa·s]	viscosity, 333.15 K [mPa·s]
x1 = 0.1667	0.16	0.226	0.313	0.424	0.564	80	55.9	40	29.2	21.7
x1 = 0.25	0.194	0.276	0.384	0.524	0.702	117	77	52.1	36.1	25.6
